Test [1] relates to Human breast cancer cell line [MDA-MB-231]. Briefly: Anti-proliferative activity (WST-8) of BRD4 targeted PROTAC in MDA-MB-231. The test is classed as cell-based. The note with it: Homo sapiens, MDA-MB-231, 72 hours. The method, then: (§1) Human breast cancer cell line [MDA-MB-231] was cultured in RPMI medium with 10% petal bovine serum, penicillin [100 U/ml] and streptomycin [[…]]. The synthesized compound was prepared as a stock solution of 10 mM or 50 mM dissolved in DMSO [dimethyl sulfoxide], and it was sequentially diluted to treat the cell line.
In order to observe inhibition of cell growth, cells were aliquoted into concentrations of 5,000 cells/well at 96 well plates, and then were treated with samples prepared at various concentrations for 72 hours. The cell survival was calculated by steps of adding in each well […] of water soluble tetrazolium salt (WST-8) which produces formazon in response to dehydrogenase present in the electron transport chain in mitochondria, incubating for 2 hours, measuring the absorbance at 450 nm, and calculating by GraphicPad Prism 8.0 software.

For another test, the target named is BRD4 (Homo sapiens, UniProt O60885). Put plainly: BRD4 protein degradation by western blot in MDA-MB-231 cells. The test is classed as cell-based. Further details: BRD4 expressed in cells; endogenous in cells; host or cells: MDA-MB-231. Particulars: MDA-MB-231, 24 hours; for DC50: 50% inhibition of protein expression, read-out: DC50 of BRD4-targeted PROTAC. The method, then: as §1
To evaluate the PROTAC's degradation ability to BRD4 expressed in cells, the cells were aliquoted into a 6 well plate at a concentration of 5×10^5 cells/ml, and then the sample was treated for 24 hours. In order to conduct western blotting assay to confirm protein expression, the cell treated with the compound was treated for 30 minutes with 70 μL of RIPA buffer wherein protease inhibitor is added. Then, cell lysate was collected on ice using a scraper and centrifuged at 4° C. 15,000 rpm for 30 minutes to obtain a supernatant containing protein. Then, SDS-PAGE is conducted for 10 μg of protein per each sample, and the protein is transferred to a membrane. The protein is reacted with antibodies of anti-BRD4, anti-tubulin and anti-GAPDH at 4° C. for 16 hours, and then, reacted with secondary antibodies at room temperature for 1 hour. The protein expression is confirmed using SUPERSIGNAL™ WEST PICO PLUS chemiluminescence substrate and image analyzer. The protein expression was normalized based on the expression value of β-tublin or GAPDH. The amount of protein expression in each sample was measured in % based on the sample treated with 0.1% DMSO vehicle which was set to 100%. The amount of protein expression was quantified using the IMAGE J PROGRAM. The change in the amount of protein expression due to the treatment of compound (DC50: the concentration of compounds where the 50% inhibition of protein expression is achieved) was calculated using […] PRISM 8.0 software.
A general note: Immunoblotting shows a protein as a band on a membrane.

Setting [2] is: WST-8, read-out: IC50 of BRD4-targeted PROTAC (cell proliferation).

The text below walks through data of patent US12384756B2, “Piperidinedione derivatives” (INNOCURE THERAPEUTICS, INC., priority 2021, dated 2025).

The structures appear in SMILES notation. pIC50: −log10 of the molar value. Where two headings read alike, the source gives them in different places.

What is called DC50 is the concentration giving 50% degradation.

Consider `Cc1sc2c(c1C)C(c1ccc(Cl)cc1)=N[C@@H](CC(=O)NCCOCCOCCOCCn1cc(CNc3cccc4cnn(C5CCC(=O)NC5=O)c(=O)c34)nn1)c1nnc(C)n1-2` (stereo partly drawn) [Example 36, 2-[(9S)-7-(4-chlorophenyl)-4,5,13-trimethyl-3-thia-1,8,11,12-tetraazatricyclo[8.3.0.0^2,6]trideca-2(6),4,7,10,12-pentaen-9-yl]-N-{2-[2-(2-{2-[4-({[3-(2,6-dioxopiperidin-3-yl)-4-oxo-3,4-dihydrophthalazin-5-yl]amino}methyl)-1H-1,2,3-triazol-1-yl]ethoxy}ethoxy)ethoxy]ethyl}acetamide], for which the pIC50 in test [1] (setting [2]) was less than 6.00. For the same compound, the DC50 on BRD4 amounted to 663 nM. Take `Cc1sc2c(c1C)C(c1ccc(Cl)cc1)=N[C@@H](CC(=O)NCCCCCNc1cccc3c(=O)n(C4CCC(=O)NC4=O)ncc13)c1nnc(C)n1-2` (stereo partly drawn) [Example 51, 2-[(9S)-7-(4-chlorophenyl)-4,5,13-trimethyl-3-thia-1,8,11,12-tetraazatricyclo[8.3.0.0^2,6]trideca-2(6),4,7,10,12-pentaen-9-yl]-N-(5-{[2-(2,6-dioxopiperidin-3-yl)-1-oxo-1,2-dihydrophthalazin-5-yl]amino}pentyl)acetamide]: the pIC50 in test [1] (setting [2]) was 7.00. Same read-out and setting: next, `Cc1sc2c(c1C)C(c1ccc(Cl)cc1)=N[C@@H](CC(=O)NCc1cn(CCOCCOCCOCCNc3cccc4cnn(C5CCC(=O)NC5=O)c(=O)c34)nn1)c1nnc(C)n1-2` (stereo partly drawn) [Ex. 32, 2-((S)-4-(4-chlorophenyl)-2,3,9-trimethyl-6H-thieno[3,2-f][1,2,4]triazolo[4,3-a][1,4]diazepin-6-yl)-N-((1-(2-(2-(2-(2-((3-(2,6-dioxopiperidin-3-yl)-4-oxo-3,4-dihydrophthalazin-5-yl)amino)ethoxy)ethoxy)ethoxy)ethyl)-1H-1,2,3-triazol-4-yl)methyl)acetamide]: less than 6.00. Still for that read-out and setting: the value for `Cc1sc2c(c1C)C(c1ccc(Cl)cc1)=N[C@@H](CC(=O)NCc1cn(CCOCCOCCNc3cccc4cnn(C5CCC(=O)NC5=O)c(=O)c34)nn1)c1nnc(C)n1-2` (stereo partly drawn) [Ex. 31, 2-((S)-4-(4-chlorophenyl)-2,3,9-trimethyl-6H-thieno[3,2-f][1,2,4]triazolo[4,3-a][1,4]diazepin-6-yl)-N-((1-(2-(2-(2-((3-(2,6-dioxopiperidin-3-yl)-4-oxo-3,4-dihydrophthalazin-5-yl)amino)ethoxy)ethoxy)ethyl)-1H-1,2,3-triazol-4-yl)methyl)acetamide] was less than 6.00. As for `Cc1sc2c(c1C)C(c1ccc(Cl)cc1)=N[C@@H](CC(=O)NCCNc1cccc3cnn(C4CCC(=O)NC4=O)c(=O)c13)c1nnc(C)n1-2` (stereo partly drawn) [Example 43, 2-((S)-4-(4-chlorophenyl)-2,3,9-trimethyl-6H-thieno[3,2-f][1,2,4]triazolo[4,3-a][1,4]diazepin-6-yl)-N-(2-((3-(2,6-dioxopiperidin-3-yl)-4-oxo-3,4-dihydrophthalazin-5-yl)amino)ethyl)acetamide], the pIC50 in test [1] (setting [2]) was less than 6.00. Moreover, the DC50 on BRD4 is 185 nM.

As to `Cc1sc2c(c1C)C(c1ccc(Cl)cc1)=N[C@@H](CC(=O)NCc1cn(CCOCCOCCOCCNc3cccc4c(=O)n(C5CCC(=O)NC5=O)ncc34)nn1)c1nnc(C)n1-2` (stereo partly drawn) [Example 34, 2-[(9S)-7-(4-chlorophenyl)-4,5,13-trimethyl-3-thia-1,8,11,12-tetraazatricyclo[8.3.0.0^2,6]trideca-2(6),4,7,10,12-pentaen-9-yl]-N-{[1-(2-{2-[2-(2-{[2-(2,6-dioxopiperidin-3-yl)-1-oxo-1,2-dihydrophthalazin-5-yl]amino}ethoxy)ethoxy]ethoxy}ethyl)-1H-1,2,3-triazol-4-yl]methyl}acetamide], in test [1] (setting [2]), the pIC50 was less than 6.00. The DC50 on BRD4 is 38.6 nM.

On to `Cc1sc2c(c1C)C(c1ccc(Cl)cc1)=N[C@@H](CC(=O)NCCN1CCN(c3ccc4cnn(C5CCC(=O)NC5=O)c(=O)c4c3)CC1)c1nnc(C)n1-2` (stereo partly drawn) [Example 49, 2-((S)-4-(4-chlorophenyl)-2,3,9-trimethyl-6H-thieno[3,2-f][1,2,4]triazolo[4,3-a][1,4]diazepin-6-yl)-N-(2-(4-(3-(2,6-dioxopiperidin-3-yl)-4-oxo-3,4-dihydrophthalazin-6-yl)piperazin-1-yl)ethyl)acetamide], for which the pIC50 in test [1] (setting [2]) was 7.51. Also, in test [1] (read-out: concentration at which cancer cell proliferation is effectively inhibited), the pIC50 is more than 6.60. For the same compound, at BRD4, the “BRD4 degradation (in words)” value is reported as “effectively degraded” and the DC50 is 40.7 nM. Regarding `Cc1sc2c(c1C)C(c1ccc(Cl)cc1)=N[C@@H](CC(=O)NCCNc1cccc3c(=O)n(C4CCC(=O)NC4=O)ncc13)c1nnc(C)n1-2` (stereo partly drawn) [Example 44, 2-((S)-4-(4-chlorophenyl)-2,3,9-trimethyl-6H-thieno[3,2-f][1,2,4]triazolo[4,3-a][1,4]diazepin-6-yl)-N-(2-((2-(2,6-dioxopiperidin-3-yl)-1-oxo-1,2-dihydrophthalazin-5-yl)amino)ethyl)acetamide], the pIC50 in test [1] (setting [2]) was less than 6.00. For the same compound, the 50% degradation concentration (DC50) at BRD4 was 930 nM. Take `Cc1sc2c(c1C)C(c1ccc(Cl)cc1)=N[C@@H](CC(=O)NCCCCCNc1cccc3cnn(C4CCC(=O)NC4=O)c(=O)c13)c1nnc(C)n1-2` (stereo partly drawn) [Example 52, 2-[(9S)-7-(4-chlorophenyl)-4,5,13-trimethyl-3-thia-1,8,11,12-tetraazatricyclo[8.3.0.0^2,6]trideca-2(6),4,7,10,12-pentaen-9-yl]-N-(5-{[3-(2,6-dioxopiperidin-3-yl)-4-oxo-3,4-dihydrophthalazin-5-yl]amino}pentyl)acetamide]: in test [1] (setting [2]), the pIC50 is 6.90. As for `Cc1sc2c(c1C)C(c1ccc(Cl)cc1)=N[C@@H](CC(=O)NCc1cn(CCOCCOCCNc3cccc4c(=O)n(C5CCC(=O)NC5=O)ncc34)nn1)c1nnc(C)n1-2` (stereo partly drawn) [Ex. 33, 2-[(9S)-7-(4-chlorophenyl)-4,5,13-trimethyl-3-thia-1,8,11,12-tetraazatricyclo[8.3.0.0^2,6]trideca-2(6),4,7,10,12-pentaen-9-yl]-N-[(1-{2-[2-(2-{[2-(2,6-dioxopiperidin-3-yl)-1-oxo-1,2-dihydrophthalazin-5-yl]amino}ethoxy)ethoxy]ethyl}-1H-1,2,3-triazol-4-yl)methyl]acetamide], the pIC50 in test [1] (setting [2]) was less than 6.00. For the same compound, at BRD4, the DC50 was determined as 171 nM. Regarding `Cc1sc2c(c1C)C(c1ccc(Cl)cc1)=N[C@@H](CC(=O)NCC1CCN(c3cccc4cnn(C5CCC(=O)NC5=O)c(=O)c34)C1)c1nnc(C)n1-2` (stereo partly drawn) [Example 50, 2-((S)-4-(4-chlorophenyl)-2,3,9-trimethyl-6H-thieno[3,2-f][1,2,4]triazolo[4,3-a][1,4]diazepin-6-yl)-N-((1-(3-(2,6-dioxopiperidin-3-yl)-4-oxo-3,4-dihydrophthalazin-5-yl)pyrrolidin-3-yl)methyl)acetamide], in test [1] (setting [2]), the pIC50 is 6.21. On the same count and under the same terms, next, `Cc1sc2c(c1C)C(c1ccc(Cl)cc1)=N[C@@H](CC(=O)NCCOc1cccc3c(=O)n(C4CCC(=O)NC4=O)ncc13)c1nnc(C)n1-2` (stereo partly drawn) [Example 46, 2-((S)-4-(4-chlorophenyl)-2,3,9-trimethyl-6H-thieno[3,2-f][1,2,4]triazolo[4,3-a][1,4]diazepin-6-yl)-N-(2-((2-(2,6-dioxopiperidin-3-yl)-1-oxo-1,2-dihydrophthalazin-5-yl)oxy)ethyl)acetamide]: less than 6.00; `Cc1sc2c(c1C)C(c1ccc(Cl)cc1)=N[C@@H](CC(=O)NCC1CCN(c3cccc4cnn(C5CCC(=O)NC5=O)c(=O)c34)CC1)c1nnc(C)n1-2` (stereo partly drawn) [Example 53, 2-((S)-4-(4-chlorophenyl)-2,3,9-trimethyl-6H-thieno[3,2-f][1,2,4]triazolo[4,3-a][1,4]diazepin-6-yl)-N-((1-(3-(2,6-dioxopiperidin-3-yl)-4-oxo-3,4-dihydrophthalazin-5-yl)piperidine-4-yl)methyl)acetamide]: less than 6.00; `Cc1sc2c(c1C)C(c1ccc(Cl)cc1)=N[C@@H](CC(=O)Nc1cccc(OCCOCCOCCNc3cccc4c(=O)n(C5CCC(=O)NC5=O)ncc34)c1)c1nnc(C)n1-2` (stereo partly drawn) [Ex. 30, 2-[(9S)-7-(4-chlorophenyl)-4,5,13-trimethyl-3-thia-1,8,11,12-tetraazatricyclo[8.3.0.0^2,6]trideca-2(6),4,7,10,12-pentaen-9-yl]-N-(3-{2-[2-(2-{[2-(2,6-dioxopiperidin-3-yl)-1-oxo-1,2-dihydrophthalazin-5-yl]amino}ethoxy)ethoxy]ethoxy}phenyl)acetamide]: less than 6.00.
